Experimental data taken from patent publication US6572839B2, “Sensitizer for tumor treatment” (Hitachi, Ltd., priority 2000, dated 2003).
Like-named read-outs stand apart in the source and are kept apart here.

What was measured:
[1] = Evaluation of the acoustic cavitation promoting effect (subharmonic signal upon ultrasound irradiation); details: 0.5 MHz and 1 MHz; for subharmonic generation: 0.1 mmol/L in PBS (pH 7.4), acoustic intensity 5 W/cm^2, 1 minute
Method: A 0.1 mmol/L solution of RB—Cn in PBS (pH 7.4, containing 1% DMF) was sealed in a polyethylene bag (30×25 mm, 0.03 mm thick) and irradiated with ultrasonic waves of 0.5 MHz and 1 MHZ simultaneously under conditions of an acoustic intensity of 5 or 10 W/cm^2 and an exposure time of 1 minute, using an experimental apparatus having the constitution shown in FIG. 4.
In FIG. 4, 10 indicates degassed water, 11—a water tank, 12—a polyethylene bag, 13—a sample solution, 14-1 and 14-2 each—a holdfast, 15—a hanger, 16—a hydrophone, 17—a supporter, 18—an ultrasound transducer, 19—a supporter, 20—a signal processor, 21—an amplifier, 22—a spectrum analyzer, 23—an amplifier, and 24—a wave generator.
The acoustic signals at the subharmonic (250 kHz) characteristic to acoustic cavitation were measured at one-second intervals using a focusing type hydrophone, the root mean square of the signal amplitudes during the irradiation period was calculated and this was used as an indication of acoustic cavitation.
For comparison, a 0.1 mmol/L solution of RB in PBS (pH 7.4) was also measured for subharmonic signals. […] For each of RB and the RB—Cn species containing 3, 6 or 18 carbon atoms in the alkyl group (RB—C3, RB—C6 and RB—C18), the relation between acoustic intensity and subharmonic intensity is shown in FIG. 6.
Using a 0.1 mmol/L solution of RB—COOH—Cn in PBS (pH 7.4), the acoustic cavitation promoting effect was evaluated in the same manner as in Test Example 5.
Using a 0.1 mmol/L solution of xanthene dye sensitizer—COOH—Cn in PBS (pH 7.4), the acoustic cavitation promoting effect was evaluated in the same manner as in Test Example 5.

[2] = Evaluation of the photosensitivity (photo-oxidation reaction of iodide); details: light of 365 nm, DMF solution, FIG. 9 / FIG. 10
Method: The photo-oxidation reaction of iodide as represented by Equation 4 was carried out in the presence of RB—Cn and the photosensitivity of the compound was evaluated.
A mixed solution composed of 2 mL of a 0.1 mol/L solution of potassium iodide in DMF and 1 mL of a 1 mmol/L solution of RB—Cn in DMF was placed in a glass dish (48 mm in diameter) and irradiated with light of 365 nm for a predetermined period. The absorbance, at 350 nm, of the sample was measured before and after exposure. 350 nm is the absorption maximum wavelength of I3^—. Based on the absorbance (A), the concentration of I3^— was calculated using Equation 5.
The procedure of Test Example 8 was followed in the presence of RB—COOH—Cn.

[3] = tested on: murine experimental tumor Colone 26; assay: Evaluation of the accumulation of RB—Cn in tumor tissues (agent extracted, fluorescence); format: in vivo; details: tumor bearing CDF1 mice, intravenous, 10 mg/kg, until 120 minutes after administration, FIG. 2
Method: (§1) Tumor bearing mice were intravenously administered with RB or RB—Cn and, after the lapse of a predetermined period, tumor tissues were excised. The fluorescence spectrum of the agent extracted from the tumor tissues was measured and the concentration of the agent was estimated from the fluorescence intensity to thereby evaluate the accumulability in tumor tissues. Mice subjected to the test were 5-week male CDF1 mice one to two weeks after subcutaneous implantation of small pieces (e.g. 1 mm^3 pieces) of the murine experimental tumor Colone 26. The dose of the agent was 10 mg/kg and methanol or chloroform was used for the extraction.

[4] = Solubility measurement of RB and lipophilic derivatives of RB in PBS and 1-octanol; format: physicochemical; details: saturated solution at 25° C.; for solubility: thermodynamic from solid
Method: The sonochemical sensitizers of the invention, namely RB—COOH—Cn species (n being the number of carbon atoms in the straight alkyl group) were examined for their solubility in an aqueous solution and in an organic solvent. The aqueous solution used was a phosphate buffer solution (hereinafter, PBS) with a pH of 7.4 and the organic solvent used was 1-octanol.
First, saturated solutions of each RB—COOH—Cn in PBS and in 1-octanol were prepared at 25° C. and each solution was measured for its ultraviolet-visible absorption spectrum. Based on the molar absorptivity determined beforehand by measuring the ultraviolet-visible absorption spectrum of a solution having a known concentration, the agent concentration in the saturated solution was estimated.
For comparison, the starting material RB and two kinds of RB derivative, for which an attempt was made to increase the lipophilicity by a method other than that of the invention, namely rose bengal alkyl esters (hereinafter, RB—Cn, n being the number of carbon atoms in the alkyl group) and rose bengal fatty acid esters (hereinafter, RB—Cn—COOH, n being the number of carbon atoms in the methylene chain), were also subjected to solubility measurement.
In the solubility measurement, the respective derivatives having an equal number of carbon atoms in the alkyl group (n=7) were used.

[5] = tested on: murine experimental tumor Colone 26; assay: Evaluation of the accumulation of RB—COOH—Cn in tumor tissues (fluorescence intensity ratio); format: in vivo; details: tumor bearing CDF1 mice, intravenous, 10 mg/kg, until 120 minutes after administration, FIG. 3
Method: as §1
Tumor bearing mice were intravenously administered with RB or RB—COOH—Cn and, after the lapse of a predetermined period, tumor tissues were excised. The fluorescence intensity of the tumor tissues was measured and the accumulability in tumor tissues was evaluated based on the ratio of that intensity and the fluorescence intensity of an internal standard (fluorescence intensity ratio). The mice used in the test and the dose of the agent were the same as in Test Example 3. As an example of the results, the relation between the time from agent administration to mice to tumor tissue excision and the fluorescence intensity ratio is shown in FIG. 3 for each of RB and RB—COOH—Cn species containing 2, 3, 7 or 15 carbon atoms in the alkyl group (RB—COOH—C2, RB—COOH—C3, RB—COOH—C7 and RB—COOH—C15).

[6] = Preparation of RB solution and RB lipophilic derivative solutions for administration in vivo; format: physicochemical; details: target 10 mg/mL (RB—Cn 1 mg/mL), final pH about 7.4
Method: A solution each of RB (Formula 9), RB—Cn—COOH (Formula 11) and RB—COOH—Cn (Formula 12) with a concentration of 10 mg/mL and a solution of RB—Cn (Formula 10) with a concentration of 1 mg/mL were prepared.
RB: 50 mg of RB was dissolved in PBS (pH 7.4) and the whole volume was made 5 mL.
RB—Cn: 4 mg of RB—Cn was dissolved in 0.4 mL of DMSO. Then, 0.4 mL of ethanol, 0.3 mL of 0.1 N NaOH aqueous solution and 1.0 mL of PBS (pH 7.4) were added and, further, 0.1 N hydrochloric acid was added to adjust the pH to about 7.4 and the whole volume was made 4 mL by further adding PBS (pH 7.4). The DMSO accounted for 10% of the whole solution.
RB—C7—COOH: 30 mg of RB—C7—COOH was dissolved in 1.2 mL of 0.1 N NaOH aqueous solution, 0.1 N hydrochloric acid was added to adjust the pH to about 7.4 and the whole volume was made 3 mL by further adding PBS (pH 7.4).
RB—COOH—Cn: n=2 to 10:30 mg of each RB—COOH—Cn was dissolved in 1.2 mL of 0.1 N NaOH aqueous solution, 0.1 N hydrochloric acid was added to adjust the pH to about 7.4 and the whole volume was made 3 mL by further adding PBS (pH 7.4). […].
n=11 to 20:30 mg of each RB—COOH—Cn was dissolved in 0.6 mL of DMF. Then, 1.2 mL of 0.1 N NaOH aqueous solution was added, 0.1 N hydrochloric acid was added to adjust the pH to about 7.4 and the whole volume was made 3 mL by further adding PBS (pH 7.4).

Row | Compound | subharmonic generation [1] | relation between light exposure time and yield in photo-oxidation of iodide [2] | further results
1 | CCCCCCC(OC(=O)c1ccccc1-c1c2cc(I)c(=O)c(I)c-2oc2c(I)c(O)c(I)cc12)C(=O)O (stereo not drawn) [EB—COOH—C7, Erythrosine B-α-carboxyheptyl ester] | observed |  | 
2 | O=C([O-])c1c(Cl)c(Cl)c(Cl)c(Cl)c1-c1c2cc(Br)c(=O)c(Br)c-2oc2c(Br)c([O-])c(Br)cc12.[Na+].[Na+] [PB, phloxine B sodium salt] | observed |  | 
3 | O=C(O)CCCCCCCOC(=O)c1c(Cl)c(Cl)c(Cl)c(Cl)c1-c1c2cc(Br)c(=O)c(Br)c-2oc2c(Br)c(O)c(Br)cc12 [PB—COOH—C7, Phloxine B-α-carboxyheptyl ester] | observed |  | 
4 | O=C([O-])c1c(Cl)c(Cl)c(Cl)c(Cl)c1-c1c2cc(I)c(=O)c(I)c-2oc2c(I)c([O-])c(I)cc12.[Na+].[Na+] [RB, rose bengal sodium salt] | observed | almost proportional to the exposure time | agent concentration in tumor tissues [3]: hardly observed; solubility ([4]; 1-octanol, organic solvent or mixture, organic solvent, read-out: solubility in 1-octanol): < 0.1 mM; solubility ([4]; phosphate buffer solution (PBS), pH 7.4, aqueous buffer, aqueous solution, read-out: solubility in PBS (pH 7.4)): 220 mM; solubility in 1-octanol ([4]; organic solvent, sodium salt): <0.1 mM; occurrence/concentration in tumor tissues (fluorescence intensity ratio to internal standard) [5]: hardly observed; dissolution behaviour when preparing solution for administration in vivo [6]: soluble as it was in PBS (pH 7.4)
5 | CCCCCCOC(=O)c1c(Cl)c(Cl)c(Cl)c(Cl)c1-c1c2cc(I)c(=O)c(I)c-2oc2c(I)c(O)c(I)cc12 [RB—C6] | observed | almost proportional to the exposure time | agent concentration in tumor tissues [3]: higher as compared with RB
6 | CCCCCCCCCCCCCCCCCCOC(=O)c1c(Cl)c(Cl)c(Cl)c(Cl)c1-c1c2cc(I)c(=O)c(I)c-2oc2c(I)c(O)c(I)cc12 [RB—C18] |  | almost proportional to the exposure time | agent concentration in tumor tissues [3]: higher as compared with RB; subharmonic formation ([1]; 0.1 mmol/L in PBS (pH 7.4, 1% DMF), ultrasound intensity 10 W/cm^2, 1 minute): no subharmonic formation was observed
7 | CCCCCCCCCCOC(=O)c1c(Cl)c(Cl)c(Cl)c(Cl)c1-c1c2cc(I)c(=O)c(I)c-2oc2c(I)c(O)c(I)cc12 [RB—CLO] |  | almost proportional to the exposure time | 
8 | CCCCCCCCCCCCCCOC(=O)c1c(Cl)c(Cl)c(Cl)c(Cl)c1-c1c2cc(I)c(=O)c(I)c-2oc2c(I)c(O)c(I)cc12 [RB—Cl4] |  | almost proportional to the exposure time | 
9 | Rose bengal-α-carboxyethyl ester [RB—COOH—C2] |  | almost proportional to the exposure time | occurrence/concentration in tumor tissues (fluorescence intensity ratio to internal standard) [5]: hardly observed
10 | Rose bengal-α-carboxypentadecyl ester [RB—COOH—C15] | observed | almost proportional to the exposure time | occurrence/concentration in tumor tissues (fluorescence intensity ratio to internal standard) [5]: higher than that of RB
11 | erythrosine B sodium salt [EB] | observed |  | 
